Experimental data: ChEMBL document CHEMBL1201862, “PubChem BioAssay data set” (2004)
Activity calls are given as the source filed them.

How the values were obtained:
BJ [1] = experiment: cytotoxicity toward Ras-transformed BJeLR fibroblasts, dose response, cell-based, alamar blue fluorescence, cherrypicked samples (AID 2631); format: functional; conditions: Homo sapiens;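 further: confirmatory dose-response assay in RAS-dependent BJ fibroblasts engineered with TERT, LT and ST, with cytotoxicity read by fluorescence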
[2] = molecular target: Mothers against decapentaplegic homolog 3 (Homo sapiens, UniProt P84022); experiment: SMAD3 transcription factor inhibitors, dose response (AID 715); format: functional
Chain of Mothers against decapentaplegic homolog 3 (P84022 whole entry): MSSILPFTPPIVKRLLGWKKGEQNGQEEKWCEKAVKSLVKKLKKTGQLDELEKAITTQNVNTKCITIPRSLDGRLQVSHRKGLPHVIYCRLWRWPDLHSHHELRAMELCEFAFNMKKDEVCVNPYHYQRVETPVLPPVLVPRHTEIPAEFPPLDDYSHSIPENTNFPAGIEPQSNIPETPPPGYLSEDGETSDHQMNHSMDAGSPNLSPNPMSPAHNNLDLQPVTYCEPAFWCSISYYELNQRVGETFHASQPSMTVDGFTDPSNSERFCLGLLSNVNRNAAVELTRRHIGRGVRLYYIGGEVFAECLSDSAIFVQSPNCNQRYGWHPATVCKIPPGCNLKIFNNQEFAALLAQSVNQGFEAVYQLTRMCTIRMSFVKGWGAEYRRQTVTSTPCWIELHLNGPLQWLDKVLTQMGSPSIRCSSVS

[3] = Shn3 3'UTR reporter inhibitors, dose response, cell-based, Clone20 osteoblasts, firefly luciferase, cherry-picked (AID 624132); format: functional;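 further: firefly luciferase luminescence from reporter carrying the Shn3 3'UTR in osteoblasts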
BJ [4] = experiment: cells; format: functional, cell-based; conditions: Homo sapiens
[5] = control 3'UTR Renilla luciferase suppression, dose response, counter-screen for Shn3 inhibitor project, cell-based, Clone20-Shn3RL, cherry-picked (AID 624133); format: functional
[6] = inhibitors of firefly luciferase expression or activity, dose response, H4 neuroglioma cells, luminescence (AID 1990); format: functional, cell-based
HEK293 = experiment: inhibitors of LMP1-driven NF-kB reporter, dose response, cell-based, HEK293, luciferase, cherry-pick (AID 588343); format: functional; conditions: Homo sapiens
[7] = molecular target: Latent membrane protein 1 (Human herpesvirus 4 (strain B95-8), UniProt P03230); experiment: TES1-eGFP NF-kB reporter inhibition versus Tet-On dsRED, dose response, selectivity assay for LMP1 NF-kB inhibitor project, imaging, HEK293T, dual-color eGFP/dsRED, cherry-picks (AID 588398); format: functional, cell-based
Chain of Latent membrane protein 1 (P03230 whole entry): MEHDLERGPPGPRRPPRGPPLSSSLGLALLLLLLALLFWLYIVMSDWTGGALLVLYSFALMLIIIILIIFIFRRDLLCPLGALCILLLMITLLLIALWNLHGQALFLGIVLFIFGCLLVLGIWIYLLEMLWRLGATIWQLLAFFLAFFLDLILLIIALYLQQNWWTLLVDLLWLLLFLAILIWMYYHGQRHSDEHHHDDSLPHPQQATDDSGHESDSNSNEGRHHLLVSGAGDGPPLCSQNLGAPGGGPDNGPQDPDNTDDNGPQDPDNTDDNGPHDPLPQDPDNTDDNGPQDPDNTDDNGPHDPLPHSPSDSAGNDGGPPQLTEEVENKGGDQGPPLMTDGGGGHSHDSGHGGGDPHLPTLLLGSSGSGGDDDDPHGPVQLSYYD

[8] = inhibitors of PGC1a acetylation in cells, dose response, cell-based, cherry-picked samples (AID 720514); format: functional;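 further: potency may reflect raised or lowered acetylation signal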
[9] = cytotoxicity toward DRD oncogenic fibroblasts, dose response, cell-based, non-viral oncogenic, luminescence (AID 1934); format: functional; conditions: Homo sapiens
[10] = HepG2 cell cytotoxicity, dose response, cytotoxicity control for Shn3 inhibitor project, CellTiter-Glo, cherry-picked (AID 624134); format: functional, cell-based
BJ [11] = experiment: cytotoxicity toward BJ-TERT-LT-ST fibroblasts, dose response, cell-based, RAS-independent, luminescence (AID 1935); format: functional; conditions: Homo sapiens;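 further: BJ fibroblasts immortalized with TERT plus LT and ST oncogenes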
BJ [12] = experiment: cytotoxicity toward BJ-TERT fibroblasts, dose response, cell-based, RAS-independent, luminescence (AID 1933); format: functional; conditions: Homo sapiens
Vero = experiment: host cell cytotoxicity of antiviral hits, dose response, cytotoxicity control for West Nile virus antiviral project, secondary assay (AID 1650); format: functional; conditions: Chlorocebus sabaeus
[13] = Luminescence Cell-Based Dose Response HTS to Identify Inhibitors of 5'UTR Stem-Loop Driven Prion Protein mRNA Translation in H4 Neuroglioblastoma Cells. [Related pubchem assays: 1827 (Project Summary), 1813 (Primary HTS)]; format: functional
[14] = inhibitors of SNCA 5'UTR-driven reporter translation, confirmation, H4 neuroglioma cells, luminescence (AID 1988); format: functional, cell-based
[15] = molecular target: T1, Apoptotic protease-activating factor 1 (Homo sapiens, UniProt O14727); format: functional
T1 sequence (O14727 whole entry): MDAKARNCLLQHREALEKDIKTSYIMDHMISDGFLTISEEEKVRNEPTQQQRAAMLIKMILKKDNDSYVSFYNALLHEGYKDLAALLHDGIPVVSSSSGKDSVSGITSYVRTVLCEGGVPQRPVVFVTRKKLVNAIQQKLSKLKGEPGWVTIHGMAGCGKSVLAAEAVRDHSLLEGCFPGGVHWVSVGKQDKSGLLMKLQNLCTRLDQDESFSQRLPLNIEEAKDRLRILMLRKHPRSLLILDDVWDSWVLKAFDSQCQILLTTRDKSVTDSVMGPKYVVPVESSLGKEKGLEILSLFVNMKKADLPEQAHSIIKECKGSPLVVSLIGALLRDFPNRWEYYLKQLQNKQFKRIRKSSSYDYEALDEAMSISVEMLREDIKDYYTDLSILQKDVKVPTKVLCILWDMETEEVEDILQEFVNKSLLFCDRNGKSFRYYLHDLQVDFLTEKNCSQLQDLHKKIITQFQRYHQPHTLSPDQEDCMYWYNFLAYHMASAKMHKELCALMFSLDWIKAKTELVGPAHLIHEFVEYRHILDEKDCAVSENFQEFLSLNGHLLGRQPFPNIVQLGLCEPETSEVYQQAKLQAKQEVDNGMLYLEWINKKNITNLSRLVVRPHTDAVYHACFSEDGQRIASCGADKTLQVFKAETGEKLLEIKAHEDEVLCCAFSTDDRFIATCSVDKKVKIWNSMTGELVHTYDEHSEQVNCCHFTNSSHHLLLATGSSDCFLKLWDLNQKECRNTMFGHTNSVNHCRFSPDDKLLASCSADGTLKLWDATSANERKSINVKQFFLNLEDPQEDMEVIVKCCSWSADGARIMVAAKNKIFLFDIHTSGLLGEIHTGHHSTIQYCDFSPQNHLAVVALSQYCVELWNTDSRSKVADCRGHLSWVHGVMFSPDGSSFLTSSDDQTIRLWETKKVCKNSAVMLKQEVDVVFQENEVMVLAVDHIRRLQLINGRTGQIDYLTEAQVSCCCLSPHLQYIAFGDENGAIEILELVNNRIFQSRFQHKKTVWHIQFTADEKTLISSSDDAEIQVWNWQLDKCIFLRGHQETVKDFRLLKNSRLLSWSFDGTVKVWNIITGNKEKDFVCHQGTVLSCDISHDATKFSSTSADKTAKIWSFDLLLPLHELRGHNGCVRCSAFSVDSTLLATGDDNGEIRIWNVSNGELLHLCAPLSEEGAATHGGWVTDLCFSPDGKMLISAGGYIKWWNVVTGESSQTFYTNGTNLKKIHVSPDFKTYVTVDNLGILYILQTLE

[16] = molecular target: T2, Sentrin-specific protease 7 (Homo sapiens, UniProt Q9BQF6); experiment: SENP7 protease inhibitors, SAR follow-up, biochemical, luminescence, set 2 (AID 588600); format: functional
T2 sequence (Q9BQF6 whole entry): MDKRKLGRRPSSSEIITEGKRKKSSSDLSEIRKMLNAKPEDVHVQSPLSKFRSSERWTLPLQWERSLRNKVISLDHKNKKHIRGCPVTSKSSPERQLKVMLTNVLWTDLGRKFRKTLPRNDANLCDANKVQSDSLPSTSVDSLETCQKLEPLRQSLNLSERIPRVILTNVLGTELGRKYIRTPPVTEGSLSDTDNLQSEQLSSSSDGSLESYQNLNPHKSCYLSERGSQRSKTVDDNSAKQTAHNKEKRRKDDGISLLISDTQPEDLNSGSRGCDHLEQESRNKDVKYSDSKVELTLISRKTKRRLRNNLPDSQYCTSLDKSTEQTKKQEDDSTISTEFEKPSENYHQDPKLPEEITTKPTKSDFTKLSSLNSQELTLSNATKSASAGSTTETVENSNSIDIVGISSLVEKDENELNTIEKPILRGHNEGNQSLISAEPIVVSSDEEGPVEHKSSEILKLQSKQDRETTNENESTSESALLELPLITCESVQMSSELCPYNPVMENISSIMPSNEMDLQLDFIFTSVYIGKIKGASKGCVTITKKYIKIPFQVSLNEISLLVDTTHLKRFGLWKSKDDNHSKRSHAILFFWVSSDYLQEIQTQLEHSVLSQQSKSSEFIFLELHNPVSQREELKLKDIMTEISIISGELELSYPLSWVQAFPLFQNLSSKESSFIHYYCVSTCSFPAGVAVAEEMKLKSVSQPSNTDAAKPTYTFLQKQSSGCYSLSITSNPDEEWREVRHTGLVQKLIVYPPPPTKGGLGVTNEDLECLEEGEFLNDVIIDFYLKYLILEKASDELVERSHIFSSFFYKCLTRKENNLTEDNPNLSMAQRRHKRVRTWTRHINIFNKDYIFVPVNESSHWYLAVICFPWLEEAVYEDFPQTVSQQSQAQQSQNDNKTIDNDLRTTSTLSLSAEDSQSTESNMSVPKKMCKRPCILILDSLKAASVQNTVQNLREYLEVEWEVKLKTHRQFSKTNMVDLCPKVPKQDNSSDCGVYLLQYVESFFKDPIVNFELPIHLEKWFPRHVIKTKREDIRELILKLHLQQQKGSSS

[17] = molecular target: T2, Sentrin-specific protease 7; experiment: SENP7 protease inhibitors, SAR follow-up, biochemical, luminescence (AID 504497); format: functional
[18] = molecular target: T3, Sentrin-specific protease 8 (Homo sapiens, UniProt Q96LD8); experiment: SENP8 protease inhibitors, SAR follow-up, biochemical, luminescence (AID 504501); format: functional
T3 sequence (Q96LD8 whole entry): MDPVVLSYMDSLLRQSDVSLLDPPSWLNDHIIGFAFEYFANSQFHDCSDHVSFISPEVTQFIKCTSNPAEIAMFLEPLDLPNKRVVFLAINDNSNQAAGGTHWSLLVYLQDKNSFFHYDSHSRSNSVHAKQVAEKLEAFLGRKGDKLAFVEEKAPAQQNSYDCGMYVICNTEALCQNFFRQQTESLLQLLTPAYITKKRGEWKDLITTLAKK

[19] = molecular target: T4, Sentrin-specific protease 6 (Homo sapiens, UniProt Q9GZR1); experiment: SENP6 protease inhibitors, SAR follow-up, biochemical, luminescence, set 2 (AID 588598); format: functional
T4 sequence (Q9GZR1 whole entry): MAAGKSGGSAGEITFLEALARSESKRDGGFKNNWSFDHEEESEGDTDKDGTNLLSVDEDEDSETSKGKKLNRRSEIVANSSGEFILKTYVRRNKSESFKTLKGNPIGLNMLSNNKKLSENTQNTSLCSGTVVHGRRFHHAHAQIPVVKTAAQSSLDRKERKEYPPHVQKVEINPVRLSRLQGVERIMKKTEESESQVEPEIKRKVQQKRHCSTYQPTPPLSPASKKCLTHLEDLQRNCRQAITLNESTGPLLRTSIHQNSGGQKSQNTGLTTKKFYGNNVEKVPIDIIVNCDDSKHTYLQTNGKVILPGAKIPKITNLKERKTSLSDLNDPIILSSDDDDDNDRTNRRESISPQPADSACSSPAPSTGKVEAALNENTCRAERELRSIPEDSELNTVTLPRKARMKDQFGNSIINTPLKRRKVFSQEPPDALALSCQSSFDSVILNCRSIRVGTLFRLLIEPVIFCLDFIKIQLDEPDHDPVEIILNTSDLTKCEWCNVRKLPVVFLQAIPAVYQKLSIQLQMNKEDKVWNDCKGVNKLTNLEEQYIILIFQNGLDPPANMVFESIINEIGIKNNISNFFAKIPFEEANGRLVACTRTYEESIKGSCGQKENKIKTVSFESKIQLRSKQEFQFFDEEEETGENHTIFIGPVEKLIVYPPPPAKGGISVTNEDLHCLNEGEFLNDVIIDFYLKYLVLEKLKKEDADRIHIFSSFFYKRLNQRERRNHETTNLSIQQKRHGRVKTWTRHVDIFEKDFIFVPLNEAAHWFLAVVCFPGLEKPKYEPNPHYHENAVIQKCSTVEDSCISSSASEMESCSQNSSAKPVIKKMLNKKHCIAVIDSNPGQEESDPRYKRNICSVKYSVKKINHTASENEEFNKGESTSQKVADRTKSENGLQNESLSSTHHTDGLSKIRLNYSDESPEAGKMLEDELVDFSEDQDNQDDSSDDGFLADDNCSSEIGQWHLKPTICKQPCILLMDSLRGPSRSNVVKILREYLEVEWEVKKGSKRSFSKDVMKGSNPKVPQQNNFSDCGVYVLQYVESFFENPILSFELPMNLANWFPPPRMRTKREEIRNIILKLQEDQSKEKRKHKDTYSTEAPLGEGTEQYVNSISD

Caspase-3 [20] = molecular target: T5, Caspase-3 (Homo sapiens, UniProt P42574); experiment: caspase-3 inhibitors as off-family protease, SAR follow-up, selectivity assay for SENP protease inhibitor project, biochemical, luminescence, set 2 (AID 588599); format: functional
T5 sequence (P42574 whole entry): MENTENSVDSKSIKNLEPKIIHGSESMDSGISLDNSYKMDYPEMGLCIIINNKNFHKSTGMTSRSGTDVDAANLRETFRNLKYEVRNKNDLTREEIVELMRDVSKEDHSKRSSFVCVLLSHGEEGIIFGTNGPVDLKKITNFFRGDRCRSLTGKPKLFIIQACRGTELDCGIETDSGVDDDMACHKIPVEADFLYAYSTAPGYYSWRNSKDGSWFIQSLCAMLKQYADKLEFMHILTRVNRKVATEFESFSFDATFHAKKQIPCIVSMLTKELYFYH

Caspase-3 [21] = molecular target: T5, Caspase-3; experiment: SAR Analysis of small molecule inhibitors of Sentrin-specific proteases (SENPs) using a Caspase-3 Selectivity assay. [Related pubchem assays (depositor defined):AID2540, AID2599, AID434973, AID489001]; format: functional
[22] = molecular target: T3, Sentrin-specific protease 8; experiment: SENP8 protease inhibitors, SAR follow-up, biochemical, luminescence, set 2 (AID 588601); format: functional
[23] = molecular target: T4, Sentrin-specific protease 6; experiment: SAR Analysis of small molecule inhibitors of Sentrin-specific protease 6 (SENP6) using a Luminescent assay. [Related pubchem assays (depositor defined):AID2582, AID2599]; format: functional
[24] = viability loss in Mcl1-dependent HMC-1-8 cells, dose response, selectivity assay for A1 inhibitor project, cell-based, luminescence, dry powder (AID 504415); format: functional; conditions: Homo sapiens

CCOC(=O)c1c2c(n(C)c1C)C(=O)C(=O)c1ccc(Br)cc1-2
EC50 (BJ [1]): 0.52 µM (active)
IC50 [2]: 10.4 µM (active)
AC50 [3]: 1.01 µM (active)
EC50 (BJ [4]): 8.06 µM (inconclusive)
AC50 [5]: 1.6 µM (active)
EC50 [6]: 6.23 µM (active)
AC50 (HEK293): 2.51 µM (active)
AC50 [7]: 41.1 µM (active)
AC50 [8]: 4.34 µM (active)
EC50 [9]: 5.41 µM (active)
AC50 [10]: 3.95 µM (active)
EC50 (BJ [11]): 5.56 µM (inconclusive)
EC50 (BJ [12]): 4.88 µM (active)
CC50 (Vero): 6.53 µM (active)
EC50 [13]: 8.25 µM (active)
EC50 [14]: 3.58 µM (active)
IC50 [15]: 0.797 µM (active)

Fc1cccc(F)c1-c1nc(/C=C/c2ccccc2)no1
IC50 [16]: 8.02 µM (active)
IC50 [17]: 5.5 µM (active)
IC50 [18]: 15 µM (active)
IC50 [19]: 6.72 µM (active)
IC50 (Caspase-3 [20]): 18 µM (active)
IC50 (Caspase-3 [21]): 20 µM (active)
IC50 [22]: 6.98 µM (active)
IC50 [23]: 14 µM (active)

O=c1oc2ccccc2c(Nc2cc(Cl)cc(Cl)c2)c1[N+](=O)[O-]
AC50 [24]: 31.2 µM (active)
